Assay results reported in publication PMC7901654, “Bioisosteric Discovery of NPA101.3, a Second-Generation RET/VEGFR2 Inhibitor Optimized for Single-Agent Polypharmacology” (Journal of Medicinal Chemistry, 2020).

Assays:
[1] = LCMS plasma analysis (in vivo metabolism study); parameters: species or system mouse; details: 10 mg/kg oral, mice, 1 h and 4 h after dosing, LC-MS
Method: In vivo target (RET and VEGFR2) inhibition was studied by treating animals grafted with NIH3T3 RET/C634Y cells at different doses (0.3, 1, or 3 mg/kg/day p.o.) of NPA101.3 for 2 days and then performing Western blot analysis on protein extracts. […] Then, to determine antitumorigenic activity and to better distinguish RET- and VEGFR2-mediated effects, we tested NPA101.3 in nude mice transplanted with NIH3T3 cells transformed by either RET/C634Y or HRAS/G12V. Before tumors appeared, animals were treated daily with NPA101.3 (1.0, 3.0, or 10.0 mg/kg/day) or left untreated. […] Still, VEGFR2 inhibition was detected also in RAS-driven tumors, an effect that might explain the, albeit reduced, effect of the drug on their growth (Figure S13). Importantly, as predicted, no trace of NPA101.3 demethyl metabolites was detected after 1 or 4 h from oral dosing in mice (Figure S14). […]
After thawing, cells were maintained in culture using minimum essential medium supplemented with 10% foetal bovine serum, 1% non-essential amino acids, 1% sodium pyruvate, 2mM L-glutamine, 1% pen-strep, 15μg/ml blasticidin and 100 μg/ml hygromycin. hERG channel expression induction was obtained by adding 10 μg/ml tetracycline 48 h before the experiment. […] Current amplitude was measured and […]
Supplementary Figure S14: In vivo metabolism study. […] NPA101.3 drug peak was detected at 3.61 min (m/z = 529) at either time point. […]

[2] = tested on: RET and VEGFR2 in NIH3T3 RET/C634Y tumours; test: In vivo target (RET and VEGFR2) inhibition, Western blot of established tumours; parameters: species or system mouse; details: 3 mg/kg/day p.o. for 2 days, harvested 3 h after last dose
Method: (§1) In vivo target (RET and VEGFR2) inhibition was studied by treating animals grafted with NIH3T3 RET/C634Y cells at different doses (0.3, 1, or 3 mg/kg/day p.o.) of NPA101.3 for 2 days and then performing Western blot analysis on protein extracts. […] Then, to determine antitumorigenic activity and to better distinguish RET- and VEGFR2-mediated effects, we tested NPA101.3 in nude mice transplanted with NIH3T3 cells transformed by either RET/C634Y or HRAS/G12V. Before tumors appeared, animals were treated daily with NPA101.3 (1.0, 3.0, or 10.0 mg/kg/day) or left untreated. […] Still, VEGFR2 inhibition was detected also in RAS-driven tumors, an effect that might explain the, albeit reduced, effect of the drug on their growth (Figure S13). Importantly, as predicted, no trace of NPA101.3 demethyl metabolites was detected after 1 or 4 h from oral dosing in mice (Figure S14).
Supplementary Figure S11: In vivo target inhibition of NPA101.3 in nude mice implanted with cells transformed by RET/C634Y […] NIH3T3 RET/C634Y cells (2 x 105) were inoculated subcutaneously into the right and left dorsal portions of nude mice. When tumours reached approximately ~200 mm 3, mice (2 mice/dose) were treated by oral gavage with 3 doses (0, 24, 48 h) of the compound (0.3, 1 and 3 mg/Kg) or left untreated (NT); proteins were harvested 3 h after the last dose. […]

NIH3T3 RET/C634Y tumors = format: in vivo
Method: as §1
Figure 6 Effects of NPA101.3 on in vivo tumor growth. NIH3T3 cells transformed by RET/C634Y or HRAS/G12V were inoculated subcutaneously into nu/nu mice. After 4 days, animals were randomly assigned to receive for the indicated time periods the compound (1.0, 3.0, or 10 mg/kg/day) (24 mice; 8 mice/group for 1, 3, and 10 mg/kg doses) or vehicle (8 mice) by oral gavage. The average size of tumors is reported ± SD.
NPA101.3 was dissolved in 80% H2O, 19.875% Tween 20, and 0.125% xanthan gum. The formulation was stored at room temperature and vortexed prior to administration. NIH3T3 RET/C634Y (200000) or NIH3T3 HRAS/G12V (50000) cells were inoculated subcutaneously into the dorsal portion (both sides) of 6-week-old female BALB/c nu/nu mice (32 mice/cell line) (Jackson Laboratories, Bar Harbor, ME). After 4 days, before tumors had appeared, animals were randomly assigned to receive NPA101.3 (1.0, 3.0, or 10 mg/kg/day) (8 mice/group) or vehicle control (8 mice) by oral gavage. Tumor diameters were measured with caliper every 2–3 days. Tumor volumes (V) were calculated by the rotational ellipsoid formula V = A × B^2/2 (A is the axial diameter, and B is the rotational diameter). […] Animals were fed ad libitum on an autoclaved diet and tap water and maintained at the Dipartimento di Medicina Molecolare e Biotecnologie Mediche Animal Facility. All manipulations were performed while the animals were under isoflurane gas anesthesia. Animal studies were conducted in accordance with Italian regulations for experimentation on animals and approved by the Italian Ministry of Health (Authorization 1023/2015-PR). To compare tumor growth, an unpaired Student’s t test (InStat program, GraphPad Software) was used. P values were statistically significant at the P < 0.05 level. […]

In the case of `CC(C)(C)c1cc(NC(=O)Cc2ccc(-n3cnc4cc(-c5ccc(S(C)(=O)=O)cc5)ccc43)cc2)no1` [NPA101.3], the “demethyl metabolites in plasma” value [1] was “no trace”, the “RET autophosphorylation and signaling and VEGFR2 phosphorylation in tumours” value [2] was “strongly inhibited” and the “RET phosphorylation and signaling in NIH3T3 RET/C634Y tumors” value (NIH3T3 RET/C634Y tumors; 1.0 mg/kg, 3 h after last dose) was “strong RET phosphorylation and signaling inhibition”. The “tumor formation induced by RET/C634Y-transformed cells” value (NIH3T3 RET/C634Y tumors; 10 mg/kg/day oral, nu/nu mice, treatment before tumors appeared) was “completely prevented”, the “rate of growth of RET-driven tumors” value (NIH3T3 RET/C634Y tumors; lower doses (1.0, 3.0 mg/kg/day) oral) was “significantly reduced” and the “signs of wasting or toxicity in xenograft mice” value (NIH3T3 RET/C634Y tumors; mouse, in vivo) was “No mouse showed signs of wasting or other signs of toxicity”.
